The source of these data is patent US20070037752A1, “Novel alanyl-amino peptidase inhibitors for functionally influencing different cells and treating immunological, inflammatory, neuronal, and other diseases” (priority 2003, published 2007).

Assay [1] has as its target alanyl aminopeptidases (APN) (Homo sapiens, UniProt P15144). The assay is described as follows: Inhibition of alanyl aminopeptidase enzymatic activity, fluorogenic substrate (Ala)2-rhodamine 110. The following applies: for IC50: read-out: IC50APN. The class given is biochemical. The protocol:
The inhibition characteristics measured are referred to as IC-50 values or ID50 values (the latter marked with “*”) for said enzyme. The enzymatic activity was determined by means of the fluorogenic substrate/product (Ala)2-rhodamine 110.

Assay [2] has as its system female Balb/c mice. The assay is described as follows: Dextran sulfate-induced colitis, disease score. The class given is in vivo. The following applies: 10 μg single inhibitor i.p., three days from day 5, score on day 7; insignificant. From the text: Therapeutic Effect of the Combined Inhibition of the Alanyl Aminopeptidases and of Enzymes Having an Analogous Effect as Well as of Dipeptidyl Peptidase IV and of Enzymes Having an Analogous Effect on the Dextran Sulfate-Induced Colitis in Mice (Animal Model of Chronic Inflammatory Intestinal Diseases)
An inflammation relating predominantly to the colon (equivalent to the disease of human Colitis ulcerosa) was induced by an administration of 3% sodium dextran sulfate dissolved in the drinking water of female Balb/c mice having an age of 8 weeks. […] The peptidase inhibitors (or phosphate-buffered saline as a placebo) were administered intraperitoneally from day 5 on for three successive days. The degree of the disease was determined in accordance with an acknowledged evaluation system (score). The following parameters were considered when determining the score: Consistency of the excrements (solid=0 points (pts.); pasty=2 pts.; liquid/like diarrhea=4 pts.); detection of blood in the excrements (no blood=0 pts.; occult blood=2 pts.; evident=4 pts.); loss of weight (0-5%=0 pts.; 5 to 10%=1 pts.; 10-15%=2 pts.; 15-20%=3 pts.; >20%=4 pts.). Healthy animals have a score value of 0 pts.; the maximum value are 12 pts. From 10 pts. on, the disease is lethal. In the course of the disease, the score value increased due to the change of the excrement parameters. […]

Assay [3] concerns female Balb/c mice. The assay is described as follows: Ovalbumine-induced asthma bronchiale, pulmonal function (EF50) and eosinophilia. The class given is in vivo. The following applies: i.p. 0.1 mg of each inhibitor, days 28-35; FIG. 3 A. The protocol:
Therapeutic effect of the combined inhibition of alanyl aminopeptidases and of enzymes having an analogous effect as well as of dipeptidyl peptidase IV and of enzymes having an analogous effect on the ovalbumine-induced asthma bronchiale ib mice (animal model of human asthma bronchiale).
Female Balb/c mice were sensitized for the antigen ovalbumine capable of inducing asthma bronchiale by an intreperitoneal administration of 10 μg ovalbumine on the days 0, 14 and 21. On day 27/28, the animals received a boostering dose of ovalbumine by inhalation [vD3]. After an intreperitoneal administration of the peptidase inhibitors on the days 28-35, there was effected an intranasal ovalbumine challenge on day 35, as well as a check of the allergic premature reaction via the pulmonal function. There were measured: the average expiratory flux (EF50), the tidal volume, the respiration rate and the minute volume as well as the number of eosinophilic granulocytes in the bronchoalveolar lavage.
8 to 10 animals were used per experimental group. By way of example, in FIG. 3 A, there is summarized the effect of the peptidase inhibitors on the reduction of the EF50 value. […] Group E represents animals which were not sensitized by OVA, but which were subjected—beyond that—all procedures to which the animal groups A to D were subjected.

Like-named read-outs stand apart in the source and are kept apart here.

Sequence of alanyl aminopeptidases (APN) (P15144 whole entry, species assumed): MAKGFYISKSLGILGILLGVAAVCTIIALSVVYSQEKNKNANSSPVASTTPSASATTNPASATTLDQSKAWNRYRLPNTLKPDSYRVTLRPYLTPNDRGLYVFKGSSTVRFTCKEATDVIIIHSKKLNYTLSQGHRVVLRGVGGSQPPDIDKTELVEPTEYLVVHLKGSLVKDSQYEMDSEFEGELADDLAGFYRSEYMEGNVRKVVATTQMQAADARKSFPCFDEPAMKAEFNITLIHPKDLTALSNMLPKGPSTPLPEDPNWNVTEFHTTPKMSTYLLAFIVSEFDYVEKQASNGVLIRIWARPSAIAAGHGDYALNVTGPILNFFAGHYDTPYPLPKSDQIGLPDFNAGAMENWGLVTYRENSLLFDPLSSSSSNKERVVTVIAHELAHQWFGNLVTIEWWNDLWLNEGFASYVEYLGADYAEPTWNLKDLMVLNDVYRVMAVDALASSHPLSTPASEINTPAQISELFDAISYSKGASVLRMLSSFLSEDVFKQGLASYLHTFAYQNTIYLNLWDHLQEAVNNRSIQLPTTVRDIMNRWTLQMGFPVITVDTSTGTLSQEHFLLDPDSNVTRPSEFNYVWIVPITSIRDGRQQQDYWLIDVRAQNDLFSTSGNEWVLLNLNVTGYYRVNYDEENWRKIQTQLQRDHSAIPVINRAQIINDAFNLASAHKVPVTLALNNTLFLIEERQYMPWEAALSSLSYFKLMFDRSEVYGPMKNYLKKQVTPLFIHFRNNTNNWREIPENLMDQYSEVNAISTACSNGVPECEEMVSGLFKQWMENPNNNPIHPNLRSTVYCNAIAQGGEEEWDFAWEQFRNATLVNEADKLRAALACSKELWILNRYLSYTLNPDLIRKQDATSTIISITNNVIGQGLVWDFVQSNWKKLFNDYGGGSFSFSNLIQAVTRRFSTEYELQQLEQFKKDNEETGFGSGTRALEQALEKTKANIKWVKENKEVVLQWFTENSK

On to `Cc1ccccc1NC(=O)C1C(c2cccs2)C(C#N)=C(SCC(=O)Nc2ccc(Br)cc2)NC1(C)O` (stereo not shown) [A13.019], for which the IC50 in assay [1] (Table 13) amounted to 33.9 µM.
`CCOC(=O)c1cc(-c2ccc(/C=C3\C(=O)N(CCCO)C(=O)C(C#N)=C3C)o2)ccc1Cl` [A13.020]: in assay [1] (Table 13), the IC50 worked out at 41 µM.
On the same count and under the same terms, in the case of `CC1=C(C#N)C(=O)N(CC(C)O)C(=O)/C1=C/c1ccc(-c2ccc(Br)cc2)o1` (stereo not shown) [A13.021] it was 47.2 µM; in that of `CC1CCc2c(sc(NC(=O)C(C(F)(F)F)C(F)(F)F)c2C#N)C1` (stereo not shown) [A13.022], 51.3 µM; in that of `CCCOC(=O)c1cc(-c2ccc(/C=C3\C(=O)N(CCO)C(=O)C(C#N)=C3C)o2)ccc1Cl` [A13.023], 54 µM.
For `CC1=C(C#N)C(=O)N(CCO)C(=O)/C1=C\c1ccc(-c2ccc(C)c(Cl)c2)o1` [A13.024], the IC50 in assay [1] (Table 13) was determined as 125 µM.
Turning to `COC(=O)C1=C(N)N2C(=O)CSC2=C(C(=O)OC)C1` [A14.001], the IC50APN entry in assay [1] (Table 14) is listed as ““positively very highly active”, means beyond measurement- scale””.
Regarding `COC(=O)C1=C(N)N2C(=O)CSC2=C(C(=O)OC(C)C)C1` [A14.002], the IC50 in assay [1] (Table 14) is 5.9 µM.
For the compound `CCOC(=O)C1=C2SCC(=O)N2C(N)=C(C#N)C1` [A14.003], in assay [1] (Table 14), the IC50 was determined as 23.1 µM.
In the case of `CCCCC[C@H](CC(=O)NO)C(=O)N[C@H](C(=O)N1CCC[C@H]1CO)C(C)C` [Actinonine], the “reduction of the heaviness of the disease (colitis score)” value with female Balb/c mice [2] is given as −16.5%. For the same compound, the “effect on the reduction of the EF50 value (pulmonal function)” value with female Balb/c mice [3] was “showed a therapeutic effect”.
The corresponding values for `N[C@@H](CCCCNC(=O)OCc1ccc([N+](=O)[O-])cc1)C(=O)N1CCCC1` [Lys[Z(NO2)]pyrrolidide] are −12.3% and “showed a therapeutic effect”.
